Data on three compounds can be found in patent US20180333379A1 (priority 2018, published 2018).

One series deals with neurons. The conditions noted are these: cited from earlier work.
The target of the next series is T1, β-amyloid peptide(1-40) (Homo sapiens, UniProt P05067).
T1 construct: when incubated with β-amyloid peptide(1-40); (Park, Kim, Son, & Yang, 2009)
The conditions noted are these: cited from earlier work.

The conditions of series [1]: cited from earlier work.
For series [2] the following is noted: 280-310 milliosmoles per liter, pH 6-8, animal preparation; cited from earlier work.
The target in series [3] is T2, β-2-microglobulin aggregates (Homo sapiens, UniProt P61769).
T2 construct: purchased Lee Biosolutions, Maryland Heights, Mo
In words: Citrate treatment of β-2-microglobulin aggregates (thioflavin T fluorescence microscopy). The format is biochemical. The conditions noted are these: 2 weeks, thioflavin T stain. As for the experimental part: (§1) In the following experiments, the concentration of thioflavin T was thirty micromolar in phosphate buffered saline (PBS), and the staining time was five minutes.
(§2) In the following experiments, an […] observer interpreted fluorescence. Interpretation of microscopic fluorescence intensity may be subject to bias. Staining times and washes were controlled.
One milliliter of β-2-microglobulin (Lee Biosolutions, Maryland Heights, Mo.) at a concentration of 1 mg/0.5 ml were mixed with two milliliters of 10 mM calcium chloride in normal saline at 37° C. for three weeks, and a precipitate formed. […] The precipitate was aspirated and stained with 10 microliters of thioflavin T, washed twice with phosphate bufferd saline (PBS), and each sample was observed under an epifluorescent microscope with B2 filter (excitation filter, 450-490 nm; barrier filter, 520 nm). (Table 1)

Series [4] concerns the target T3, amyloid β peptide(1-40) aggregates (Homo sapiens, UniProt P05067).
T3 construct: amyloid β peptide(1-40) (Abcam, Cambridge, United Kingdom); purchased Abcam, Cambridge, United Kingdom
In words: Citrate treatment of amyloid β peptide(1-40) aggregates (thioflavin T fluorescence microscopy). The format is biochemical. The conditions noted are these: 48 hours, 37° C. As for the experimental part: as §1, §2
A precipitate formed and the sample was centrifuged at 1500 rpm for five minutes. […] Then, five microliters of thioflavin T were added to each sample, and after five minutes, the samples were centrifuged at 1500 rpm for five minutes and washed twice with PBS. Aggregates in the micro centrifuge tubes were aspirated and observed under an epifluorescent microscope with B2 filter. (Table 3)

The target of another series is alpha synuclein (Homo sapiens, UniProt P37840). The note with it: 10 mM calcium chloride in PBS, 37° C., four weeks. As for the experimental part: Five hundred micrograms of alpha synuclein (rPeptide, LLC, Athens, Ga.) was dissolved in 400 microliters of 10 mM calcium chloride in PBS and incubated at 37° C. for four weeks.

T3 sequence (P05067 672-711 limits assumed): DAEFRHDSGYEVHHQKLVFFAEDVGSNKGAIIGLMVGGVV
T2 sequence (P61769 21-119): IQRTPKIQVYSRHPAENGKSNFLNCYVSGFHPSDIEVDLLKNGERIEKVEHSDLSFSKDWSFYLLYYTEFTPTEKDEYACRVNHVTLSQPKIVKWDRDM
T1 sequence (P05067 672-711 limits assumed): as the sequence (P05067 672-711 limits assumed) above

With `O=C(O)CC(O)(CC(=O)O)C(=O)O` [Citrate], the “Protection of neurons from apoptotic effects of β-amyloid peptide(1-40)” value with neurons is “protect neurons from the apoptotic effects”. Also, on β-amyloid peptide(1-40), the “Formation of amyloid-like aggregates” value was “inhibit formation of amyloid-like aggregates”. Also, in series [1] (in vivo), the “Blood brain barrier crossing” value is listed as “freely crosses the blood brain barrier” and the “Cerebral spinal fluid to plasma concentration of citrate” value was “approximately two-three to one”. For the same compound, in series [1] (normal volunteers), the “Average CSF concentration” value is 0.18 mM and the “Average plasma citrate concentration” value was 0.09 mM. In series [1] (patients with cerebrovascular disorders), the CSF citrate concentration was no more than 0.3 mM.

As to `O=C([O-])CC(O)(CC(=O)[O-])C(=O)[O-].[Na+].[Na+].[Na+]` [Sodium citrate, sodium citrate], the “Effect on vertebral bone weight” value in series [2] was “decreased vertebral bone weight”. The “Effect on weight of ligamentum flavum, dura mater, and spinal cord” value in series [2] is given as “minimal effect”. In addition, the “Presence of fluorescent fibrils” value is on record as “Present” in series [3] (sodium citrate 0.01 mM); “Present” in series [3] (sodium citrate 0.1 mM); “Absent” in series [3] (sodium citrate 10 mM); “Absent” in series [3] (sodium citrate 100 mM); “Present” in series [3] (sodium citrate 1M). Also, the “Thioflavin T fluorescence” value in series [4] (sodium citrate 0.01 mM in PBS) is on record as “Present”; in series [4] (sodium citrate 0.10 mM in PBS), “Present”; in series [4] (sodium citrate 1.00 mM in PBS), “Minimally present”; in series [4] (sodium citrate 10.00 mM in PBS) it was “Absent”.

`[Ca+2].[Cl-].[Cl-]` [calcium chloride]: at alpha synuclein, the Precipitate formation entry is “No precipitate formed”.
